Measured values: article PMC10155203 (Molecular Pharmaceutics, 2023)
Read-outs that look alike come from different tables or passages of the source.

Legend:
[1] = Study 1: food effect clinical study, single oral dose of encorafenib 100 mg, fasted vs high-fat meal, plasma PK and safety; type: in vivo, human; conditions: for AUC(0-inf) / AUC(0-t) / Cmax: GM (GCV%); for half-life: arithmetic mean ± SD; for Vd/F / CL/F: mean ± SD; for Vd/F: read-out: Vz/F; for Tmax: median (range)
Protocol: Both studies were conducted at the Celerion Clinical Research Unit in Lincoln, NE. The trial protocols and informed consent documentation were reviewed and approved by the institutional review boards at the center. These studies were conducted in compliance with the ethical principles originating in or derived from the Declaration of Helsinki and in compliance with all International Council for Harmonization Good Clinical Practice Guideline.
In study 1, participants were randomized to 2 treatment sequences. Participants were either fasted or fed a high-fat meal on day 1 of the first period and received the alternate treatment on day 1 of the second period. Each dose was separated by a washout period of at least 7 days. […] The high-fat breakfast consisted of 2 slices of buttered toast, 2 fried eggs, 2 strips of bacon, 4 oz. of hash brown potatoes, and 240 mL of whole milk. This breakfast met the criteria specified in the FDA guidance for a high-fat meal.[6] […] Water (except water provided with each dosing) was restricted 1 h prior to and 1 h after each study drug administration but was allowed ad libitum at all other times. Participants were housed from day −1 of each period until after the 36 h blood draw and/or study procedures on day 2. Participants returned to the clinical research unit for the 48 and 72 h blood draws.
Additionally, participants were instructed not to crush, split, or chew the study drug.
Serial blood samples for PK were collected in Study 1 predose and at 0.25, 0.5, 1, 1.5, 2, 2.5, 3, 3.5, 4, 5, 6, 8, 10, 12, 24, 36, and 72 h after the day 1 dose in each period.
The actual sample collection times were used for the PK parameter analysis.
The overall safety profile was characterized by laboratory test abnormalities, physical examination, vital signs, ECGs, and AEs. […] Triplicate ECGs were also measured at the end of the studies or upon early termination.
These were back-transformed to obtain the geometric LSMs and ratios of LSMs (geometric mean ratios [GMRs]), and the corresponding 90% CIs of the GMRs, on the original scale.

CYP2C19 = tested on: CYP2C19; set-up: method as in PMID 27693678; conditions: fitted using in vivo data; cited from earlier work
[2] = PBPK modeling in GastroPlus 9.8 (model parameters and predicted absorption); set-up: species or system human; conditions: estimated; increased from GastroPlus default value
Protocol: Simulations were performed using the commercially available PBPK modeling platform GastroPlus 9.8 (Simulations Plus, Inc., Lancaster, CA). Input and final parameters for the model were published by Del Frari et al.[29] […] The fasted, fed, and PPI states were predicted for the encorafenib commercial capsule. All input data for the platform are shown in Table 2 and were based on physicochemical properties of the compound, formulation characteristics and absorption, distribution, metabolism, and excretion properties. […] Related to dissolution, the Johnson model was selected. This model is an extension of the Nernst–Brunner dissolution model and accounts for changing particle radius during dissolution as well as for dissolution of cylindrical particles. […] Gathered information concerning physicochemical and biopharmaceutical properties was obtained in-house. Fasted state physiology in the human GI tract was simulated by selecting the fluid volumes as observed by the magnetic resonance imaging study of Mudie et al.[30] to address biorelevant fluid volumes in the different GI compartments. In the case of the fed state, the stomach transit time was adjusted and optimized to a value of 2.25 h for consistency with the observed PK data, and the physiology was adjusted to fed state conditions (default settings). […]

[3] = human, plasma, po, 100 mg, study 1, 100 mg single oral dose, fasted
[4] = human, plasma, po, 100 mg, study 1, 100 mg single oral dose, fed
[5] = study 1, 100 mg single oral dose, fasted
[6] = study 1, 100 mg single oral dose, fed

## COC(=O)N[C@@H](C)CNc1nccc(-c2cn(C(C)C)nc2-c2cc(Cl)cc(NS(C)(=O)=O)c2F)n1 [encorafenib, Encorafenib]
[1]; [3]
  AUC(0-inf): 3120 ng·h/mL
  AUC(0-t): 3130 ng·h/mL
  Cmax: 962 ng/mL
  half-life: 4.79 ± 3.79 h
  Vd/F: 226 ± 207 L
[1]; human, plasma, po, 100 mg, study 1, 100 mg single oral dose, fasted, read-out: Tmax
  Tmax: 1.5 h
[1]; [4]
  AUC(0-t): 3020 ng·h/mL
  Cmax: 621 ng/mL
  half-life: 5.61 ± 3.69 h
  Vd/F: 262 ± 163 L
[1]; human, plasma, po, 100 mg, study 1, 100 mg single oral dose, fed, read-out: Tmax
  Tmax: 3.5 h
[1]; human, plasma, po, 100 mg, study 1, encorafenib 100 mg single oral dose, fed (high-fat meal)
  AUC(0-inf): 3030 ng·h/mL
[1]; single oral dose of 100 mg, healthy participants
  tolerability: tolerated
[1]; study 1
  changes in vital signs, laboratory values, or ECG measurements: No clinically significant changes
  participants reporting headache: 73%
  participants who discontinued due to an AE related to encorafenib: 2 participants
  severity of AEs: all mild in severity
[1]; [5]
  CL/F: 34.64 ± 14.209 L/h
  Tmax: 1.495 (0.997, 3.49) h
[1]; [6]
  CL/F: 35.13 ± 12.535 L/h
  Tmax: 3.499 (2.00, 5.00) h
[1]; study 1, fed vs fasted
  delay of median Tmax under fed conditions: 2 h
[1]; study 1, fed vs fasted, 100 mg
  Cmax lower in fed state than fasted: 36%
  decrease in AUCinf with a high-fat meal: 4%
  decrease in AUClast with a high-fat meal: 4%
[1]; study 1, following encorafenib in the fasted state
  participants reporting AEs: 79%
[1]; study 1, following encorafenib in the fed state
  participants reporting AEs: 92%
[1]; study 1, most common AE
  participants reporting flushing: 83%
[1]; study 1, of 40 participants who entered
  participants who discontinued due to AEs: 6 participants
[1]; study 1, overall
  participants reporting AEs: 95%
CYP2C19
  gut CYP2C19 Km: 7.51 mg/L
  gut CYP2C19 Vmax: 0.00504 mg/s
  liver CYP2C19 Km: 7.51 mg/L
  liver CYP2C19 Vmax: 0.00504 mg/s
[2]
  mean precipitation time: 90000 s
